How the values were obtained:
Experiment in all cases: Dundee kinase panel
Type in all cases: biochemical
Settings in all cases: for remaining activity at 1 µM: read-out: residual activity
[1] = target: T1, ABL (Homo sapiens, UniProt P00519)
T1 construct: lines 1-140) and Reaction Biology
Method: (§1) Compounds were screened at 1 μM. For key hits, pIC50 values were then determined by HTRF as above. […] Stability in mouse and human liver microsomes was determined by Cyprotex.

[2] = target: T2, CDK9-Cyclin T1 (Homo sapiens, UniProt P50750)
T2 construct: lines 1-140) and Reaction Biology
Method: as §1

[3] = target: T3, EF2K (Homo sapiens, UniProt O00418)
T3 construct: lines 1-140) and Reaction Biology
T3 sequence (O00418 1-725): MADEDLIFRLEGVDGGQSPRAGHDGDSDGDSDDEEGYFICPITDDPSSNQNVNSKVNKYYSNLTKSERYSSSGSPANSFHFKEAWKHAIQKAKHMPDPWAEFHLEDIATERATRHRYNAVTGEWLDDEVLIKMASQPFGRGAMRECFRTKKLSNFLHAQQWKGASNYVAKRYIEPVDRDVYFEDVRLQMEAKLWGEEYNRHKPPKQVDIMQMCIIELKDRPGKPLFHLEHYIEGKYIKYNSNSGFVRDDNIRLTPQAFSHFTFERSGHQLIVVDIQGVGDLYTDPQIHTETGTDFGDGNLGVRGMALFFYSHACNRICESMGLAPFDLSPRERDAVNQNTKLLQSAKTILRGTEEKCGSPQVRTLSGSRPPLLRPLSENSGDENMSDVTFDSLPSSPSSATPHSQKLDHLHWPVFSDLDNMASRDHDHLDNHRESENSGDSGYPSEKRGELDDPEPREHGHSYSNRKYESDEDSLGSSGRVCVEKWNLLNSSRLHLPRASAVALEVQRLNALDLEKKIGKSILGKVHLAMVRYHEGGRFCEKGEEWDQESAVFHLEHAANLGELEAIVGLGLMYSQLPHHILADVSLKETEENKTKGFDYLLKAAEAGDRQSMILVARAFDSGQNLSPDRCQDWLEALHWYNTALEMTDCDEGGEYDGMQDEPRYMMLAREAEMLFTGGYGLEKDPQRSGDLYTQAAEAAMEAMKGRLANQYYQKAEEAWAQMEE
Method: as §1

[4] = target: T4, LKB1 (Homo sapiens, UniProt Q15831)
T4 construct: lines 1-140) and Reaction Biology
T4 sequence (Q15831 1-433): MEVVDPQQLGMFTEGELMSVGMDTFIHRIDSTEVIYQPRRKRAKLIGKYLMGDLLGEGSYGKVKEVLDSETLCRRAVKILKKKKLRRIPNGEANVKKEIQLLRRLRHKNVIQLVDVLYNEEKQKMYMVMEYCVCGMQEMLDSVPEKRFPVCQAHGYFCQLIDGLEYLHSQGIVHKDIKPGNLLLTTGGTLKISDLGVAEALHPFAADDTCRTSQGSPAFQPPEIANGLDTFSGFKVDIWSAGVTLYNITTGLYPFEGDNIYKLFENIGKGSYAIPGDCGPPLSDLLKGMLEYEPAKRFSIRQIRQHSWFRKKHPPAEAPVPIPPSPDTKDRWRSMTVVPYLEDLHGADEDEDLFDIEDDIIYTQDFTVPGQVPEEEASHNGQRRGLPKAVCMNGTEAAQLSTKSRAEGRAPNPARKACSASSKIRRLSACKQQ
T4 sequence (Q7RTN6 1-431 partner): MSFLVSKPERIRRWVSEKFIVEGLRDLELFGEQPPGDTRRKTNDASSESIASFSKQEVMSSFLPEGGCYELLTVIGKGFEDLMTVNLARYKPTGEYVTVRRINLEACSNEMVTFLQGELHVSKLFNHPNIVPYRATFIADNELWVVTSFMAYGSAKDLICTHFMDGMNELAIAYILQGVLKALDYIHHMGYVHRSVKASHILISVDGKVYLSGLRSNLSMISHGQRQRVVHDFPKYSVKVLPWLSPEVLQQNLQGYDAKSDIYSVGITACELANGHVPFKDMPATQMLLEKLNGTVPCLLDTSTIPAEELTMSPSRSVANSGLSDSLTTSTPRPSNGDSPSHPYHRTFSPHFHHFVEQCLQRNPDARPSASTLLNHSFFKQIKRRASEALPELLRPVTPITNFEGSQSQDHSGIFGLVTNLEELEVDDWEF
T4 sequence (Q9Y376 1-341 partner): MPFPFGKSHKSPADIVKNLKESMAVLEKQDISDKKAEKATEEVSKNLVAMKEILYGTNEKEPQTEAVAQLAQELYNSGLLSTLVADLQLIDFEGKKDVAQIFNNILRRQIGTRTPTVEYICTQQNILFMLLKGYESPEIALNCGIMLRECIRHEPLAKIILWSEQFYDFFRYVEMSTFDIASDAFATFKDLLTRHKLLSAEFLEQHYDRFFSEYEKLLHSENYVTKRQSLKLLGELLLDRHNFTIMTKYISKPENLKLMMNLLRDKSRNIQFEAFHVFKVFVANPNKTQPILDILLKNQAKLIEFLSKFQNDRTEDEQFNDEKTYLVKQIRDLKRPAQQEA
Method: as §1

[5] = target: T5, NEK2a (Homo sapiens, UniProt P51955)
T5 construct: lines 1-140) and Reaction Biology
T5 sequence (P51955 1-445): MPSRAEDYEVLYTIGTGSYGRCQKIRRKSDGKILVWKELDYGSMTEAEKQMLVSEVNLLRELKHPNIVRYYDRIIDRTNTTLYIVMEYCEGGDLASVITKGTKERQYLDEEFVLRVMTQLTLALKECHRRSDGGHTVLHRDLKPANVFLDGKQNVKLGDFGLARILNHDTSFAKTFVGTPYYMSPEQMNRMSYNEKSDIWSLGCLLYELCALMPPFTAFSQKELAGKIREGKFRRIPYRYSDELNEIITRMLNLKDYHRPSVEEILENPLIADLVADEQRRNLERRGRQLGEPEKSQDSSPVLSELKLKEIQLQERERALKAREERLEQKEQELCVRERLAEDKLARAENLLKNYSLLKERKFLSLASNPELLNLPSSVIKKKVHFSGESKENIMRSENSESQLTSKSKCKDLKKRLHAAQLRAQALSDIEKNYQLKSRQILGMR
Method: as §1

[6] = target: T6, TSSK1 (Homo sapiens, UniProt Q9BXA7)
T6 construct: lines 1-140) and Reaction Biology
T6 sequence (Q9BXA7 1-367): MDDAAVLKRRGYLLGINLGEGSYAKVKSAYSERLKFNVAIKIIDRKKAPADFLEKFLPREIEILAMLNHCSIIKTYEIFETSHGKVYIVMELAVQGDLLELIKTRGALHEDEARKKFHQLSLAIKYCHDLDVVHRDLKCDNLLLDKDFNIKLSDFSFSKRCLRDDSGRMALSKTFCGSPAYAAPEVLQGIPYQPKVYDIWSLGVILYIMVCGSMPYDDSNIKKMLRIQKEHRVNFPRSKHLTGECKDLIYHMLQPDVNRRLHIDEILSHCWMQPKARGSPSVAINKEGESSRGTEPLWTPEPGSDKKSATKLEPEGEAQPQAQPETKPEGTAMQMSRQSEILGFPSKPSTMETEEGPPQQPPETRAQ
Method: as §1

T1 sequence (P00519 whole entry): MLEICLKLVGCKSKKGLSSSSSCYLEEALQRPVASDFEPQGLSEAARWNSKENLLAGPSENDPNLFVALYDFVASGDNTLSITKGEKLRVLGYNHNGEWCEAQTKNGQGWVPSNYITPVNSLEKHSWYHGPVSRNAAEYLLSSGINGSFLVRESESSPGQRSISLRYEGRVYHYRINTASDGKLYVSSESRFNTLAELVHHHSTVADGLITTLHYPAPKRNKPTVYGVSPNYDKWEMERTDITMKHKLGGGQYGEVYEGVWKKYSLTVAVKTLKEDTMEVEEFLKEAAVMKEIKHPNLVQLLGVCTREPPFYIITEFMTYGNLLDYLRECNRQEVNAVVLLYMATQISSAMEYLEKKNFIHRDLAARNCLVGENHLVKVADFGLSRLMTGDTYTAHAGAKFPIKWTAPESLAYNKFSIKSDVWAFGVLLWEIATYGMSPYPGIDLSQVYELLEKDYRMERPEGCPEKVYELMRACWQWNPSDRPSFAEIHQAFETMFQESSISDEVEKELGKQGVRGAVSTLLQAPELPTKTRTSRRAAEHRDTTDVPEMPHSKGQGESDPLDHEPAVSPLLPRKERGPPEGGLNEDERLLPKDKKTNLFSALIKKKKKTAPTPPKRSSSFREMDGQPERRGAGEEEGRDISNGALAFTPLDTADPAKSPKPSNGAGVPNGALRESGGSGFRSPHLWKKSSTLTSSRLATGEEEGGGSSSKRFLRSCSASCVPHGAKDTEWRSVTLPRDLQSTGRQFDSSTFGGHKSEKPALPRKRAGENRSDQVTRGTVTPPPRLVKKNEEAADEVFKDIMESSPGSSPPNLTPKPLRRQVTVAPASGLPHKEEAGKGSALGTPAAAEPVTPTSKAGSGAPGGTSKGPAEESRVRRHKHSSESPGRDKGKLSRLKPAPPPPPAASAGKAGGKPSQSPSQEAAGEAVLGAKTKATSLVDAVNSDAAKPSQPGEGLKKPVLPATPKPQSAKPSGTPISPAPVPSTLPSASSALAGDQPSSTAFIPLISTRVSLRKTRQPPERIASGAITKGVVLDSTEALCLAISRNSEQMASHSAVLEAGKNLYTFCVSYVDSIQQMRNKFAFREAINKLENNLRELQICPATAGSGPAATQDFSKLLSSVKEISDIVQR
T2 sequence (P50750 whole entry): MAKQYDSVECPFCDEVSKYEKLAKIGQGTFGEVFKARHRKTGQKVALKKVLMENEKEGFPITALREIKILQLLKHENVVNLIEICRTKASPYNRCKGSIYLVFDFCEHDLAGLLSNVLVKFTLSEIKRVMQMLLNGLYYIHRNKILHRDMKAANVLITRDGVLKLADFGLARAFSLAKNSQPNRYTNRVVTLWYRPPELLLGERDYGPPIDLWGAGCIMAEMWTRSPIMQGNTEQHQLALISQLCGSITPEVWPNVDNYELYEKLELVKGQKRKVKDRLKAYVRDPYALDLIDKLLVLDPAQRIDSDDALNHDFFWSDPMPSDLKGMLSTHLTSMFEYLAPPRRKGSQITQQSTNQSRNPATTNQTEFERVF
T2 sequence (O60563 whole entry partner): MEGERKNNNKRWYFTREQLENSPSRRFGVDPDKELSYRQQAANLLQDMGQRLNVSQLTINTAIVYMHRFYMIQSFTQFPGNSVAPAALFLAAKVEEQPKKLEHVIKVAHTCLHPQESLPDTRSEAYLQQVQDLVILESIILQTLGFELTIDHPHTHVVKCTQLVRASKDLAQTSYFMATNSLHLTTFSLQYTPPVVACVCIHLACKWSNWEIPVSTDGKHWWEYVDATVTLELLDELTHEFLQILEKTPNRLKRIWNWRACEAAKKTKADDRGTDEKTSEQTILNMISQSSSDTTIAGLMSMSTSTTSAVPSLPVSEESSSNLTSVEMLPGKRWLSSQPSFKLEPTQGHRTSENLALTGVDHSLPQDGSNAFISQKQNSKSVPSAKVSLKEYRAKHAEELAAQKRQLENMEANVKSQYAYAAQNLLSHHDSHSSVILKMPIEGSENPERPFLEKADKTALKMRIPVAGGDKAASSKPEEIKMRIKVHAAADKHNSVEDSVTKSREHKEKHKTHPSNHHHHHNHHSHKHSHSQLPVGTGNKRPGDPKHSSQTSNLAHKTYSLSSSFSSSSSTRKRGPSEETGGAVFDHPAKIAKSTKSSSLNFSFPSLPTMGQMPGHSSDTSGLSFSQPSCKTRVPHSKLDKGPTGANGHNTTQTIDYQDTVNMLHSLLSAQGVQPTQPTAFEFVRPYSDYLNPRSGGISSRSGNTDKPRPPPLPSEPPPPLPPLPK

Compound | remaining activity at 1 µM [1] [%] | remaining activity at 1 µM [2] [%] | remaining activity at 1 µM [3] [%] | remaining activity at 1 µM [4] [%] | remaining activity at 1 µM [5] [%] | remaining activity at 1 µM [6] [%] | residual activity ([1]; 1 μM) [%] | residual activity ([2]; 1 μM) [%] | residual activity ([3]; 1 μM) [%] | residual activity ([4]; 1 μM) [%] | residual activity ([5]; 1 μM) [%] | residual activity ([6]; 1 μM) [%]
O=C1Cc2c([nH]c3ccc(Br)cc23)-c2ccccc2N1 [Kenpaullone] | 40 | 22 | 97 | 89 | 89 | 46 |  |  |  |  |  | 
COCCOc1ccc(-c2cn(-c3ccccc3)c3nc[nH]c(=O)c23)cc1 [DMX-5804, 5-[4-(2-methoxy-ethoxy)-phenyl]-7-phenyl-3,7-dihydro-pyrrolo[2,3-d]pyrimidin-4-one] | 79 | 113 | 104 | 105 | 106 | 103 |  |  |  |  |  | 
O=C1Nc2ccc(I)cc2/C1=C/c1cc(Br)c(O)c(Br)c1 [GW5074] | 58 | 104 | 57 | 68 | 8 | 73 |  |  |  |  |  | 
Nc1ncc(C(=O)NC2CN(C(=O)C3CC3)C2)c2ccc(-c3cccc(F)c3)nc12 [GNE-495] |  |  |  |  |  |  | 68 | 78 | 120 | 87 | 85 | 77
Oc1ncnc2c1c(-c1ccccc1)cn2-c1ccccc1 [F1386-0303, 5,7-diphenyl-7H-pyrrolo[2,3-d]pyrimidin-4-ol] | 94 | 88 | 99 | 96 | 108 | 109 |  |  |  |  |  | 

Reference: PMC6458995, “MAP4K4 Inhibition Promotes Survival of Human Stem Cell-Derived Cardiomyocytes and Reduces Infarct Size In Vivo” (Cell Stem Cell, 2019)
